Our source for the IC50 values is patent US20240092784A1, “CONDENSED HETEROCYCLIC COMPOUND” (NISSAN CHEMICAL CORPORATION, priority 2020, published 2024).

This assay has as its target human SPR (Homo sapiens (Human), UniProt P35270). Description: Evaluation Example 2: Measurement of human SPR inhibitory activity (seven concentrations, sepiapterin absorbance at 420 nm). It is filed as biochemical. How it is done: Human SPR was prepared as described below. The full-length human SPR (1-261) cDNA was purchased from Eurofins Genomics as an artificially synthesized plasmid containing a DNA sequence optimized for the E. coli expression system so that the sequence of the expressed protein after transcription and translation matches the sequence described in UniprotKB (P35270).
Linearized insert and vector were prepared by PCR using primers designed for amplification of human SPR cDNA and primers designed to contain the thrombin recognition sequence of pET28a (Novagen) and a polyhistidine tag. Cloning was performed using In-Fusion (registered trademark) HD Cloning Kit (TaKaRa) to thereby construct a human SPR expression plasmid. The resultant human SPR expression plasmid was transformed into BL21 (DE3) competent cells (INVITROGEN).
The cells were inoculated into LB medium (1% triptone, 0.5% yeast extract, 1% sodium chloride) containing […] of kanamycin, and then precultured at 37° C. overnight. The precultured cells were inoculated into TB medium (1.2% triptone, 2.4% yeast extract, 9.4% dipotassium hydrogen phosphate, 2.2% potassium dihydrogen phosphate, 0.8% glycerin) containing […] of kanamycin, and the cultured at 37° C., to thereby induce SPR expression with 0.5 mM IPTG for four hours. After the induction, the cells were collected by centrifugation at 6,000 G for 30 minutes and washed with PBS, and the washing was discarded. The washed cells were suspended in buffer solution A (20 mM MES, pH 6.5, 100 mM sodium chloride, 1 mM DTT, 5 mM imidazole). Subsequently, the cell suspension was subjected to ultrasonic treatment to thereby homogenize the cells. The cell homogenate was clarified by centrifugation at 30,000 G for 60 minutes and then filtered with a […]. The filtrate was allowed to pass through HisTrapFF 5 mL column (GE Healthcare). The resin was washed with buffer A, and then gradient elution was performed with buffer B (20 mM MES, pH 6.5, 100 mM sodium chloride, 1 mM DTT, 500 mM imidazole). Thrombin was added to a fraction containing the SPR protein, and the mixture was dialyzed in buffer A overnight, to thereby cleave the tag. After removal of the thrombin by with Benzamidine Sepharose 4 FF (GE Healthcare), the resultant product was allowed to pass through the HisTrapFF 5 mL column, to thereby remove the tag, followed by concentration with Amicon Ultra 10,000 NMWL (Merck Millipore). The concentrate was purified by gel filtration using HiLoad 16/60 Superdex 75 pg (GE Healthcare) equilibrated with buffer C (20 mM MES, pH 6.5, 100 mM sodium chloride, 1 mM DTT). The fraction containing SPR protein was concentrated and then cryopreserved at −80° C.
Human SPR inhibitory activity was measured by using a 384-well low adsorption clear plate (Greiner) with buffer D containing 100 mM Tris-HCl (pH 7.5) (Thermo Fisher Scientific) and 0.01% bovine serum albumin (Sigma). A compound was diluted with DMSO to achieve seven different final concentrations; i.e., 0.14 nM, 0.41 nM, 1.23 nM, 3.7 nM, 11.1 nM, 33 nM, and 100 nM. A 1.5 μL aliquot of the compound solution prepared with DMSO was diluted with 250 μL of buffer D, and the thus-diluted solution was dispensed into the 384-well plate at 20 μL/well. Thereafter, human SPR was diluted with buffer D to 150 ng/mL and then dispensed into the 384-well plate at 20 μL/well. Subsequently, 40 μL of ultrapure water containing 120 μM sepiapterin (produced by the method described in L-Sepiapterin, Heterocycles, 2008, 76, 1329-1335 and WO 2013/168693) and 160 μM NADPH (Nacalai) was added to each well, and then reaction was initiated. The reaction mixture was incubated at room temperature for 240 minutes. Thereafter, in order to determine the amount of sepiapterin, the absorbance at 420 nm was measured by applying the 384-well plate to EnSpire multimode plate reader (Perkin Elmer). The percent inhibition (%) of human SPR by the test compound was calculated by the following formula.

The mark [1] stands for this setting: Evaluation Example 2, seven concentrations 0.14 nM to 100 nM, 240 minutes at room temperature, read-out: IC50.
Setting [2] is: sepiapterin absorbance, Table 41, read-out: concentration at 50% inhibition of human SPR (IC50).

Where a name gives a salt, the structure may show the parent alone. Read-outs that look alike come from different tables or passages of the source.

Chain of human SPR (P35270 whole entry, the tested form may be a part): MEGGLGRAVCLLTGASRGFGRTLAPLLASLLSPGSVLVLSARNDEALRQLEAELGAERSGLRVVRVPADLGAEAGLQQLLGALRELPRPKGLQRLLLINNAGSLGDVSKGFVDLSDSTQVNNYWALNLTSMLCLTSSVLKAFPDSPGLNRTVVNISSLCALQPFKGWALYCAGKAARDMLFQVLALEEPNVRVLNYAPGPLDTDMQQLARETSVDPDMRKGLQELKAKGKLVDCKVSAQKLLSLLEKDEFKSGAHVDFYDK

As to `CC(C)(C)Cn1c(=O)c(C(=O)NC2CC2)c(O)n2nc(C#N)cc12` [Synthesis Example 279, 2-Cyano-N-cyclopropyl-7-hydroxy-4-neopentyl-5-oxo-4,5-dihydropyrazolo[1,5-a]pyrimidine-6-carboxamide], the IC50 under setting [1] came out at 1.76 nM.

`CC(C)Cn1c(=O)c(C(=O)NC2CC2)c(O)n2ncc(/C=C/C(=O)N3CCC(F)(F)C3)c12` [compound 453, (E)-N-Cyclopropyl-3-(3-(3,3-difluoropyrrolidin-1-yl)-3-oxoprop-1-en-1-yl)-7-hydroxy-4-isobutyl-5-oxo-4,5-dihydropyrazolo[1,5-a]pyrimidine-6-carboxamide]: the IC50 under setting [1] turned out to be 0.82 nM.

As to `CC(C)Cn1c(=O)c(C(=O)NCC(F)(F)F)c(O)n2ncc(/C=C/C(=O)N3CCOCC3)c12` [compound 552, (E)-7-Hydroxy-4-isobutyl-3-(3-morpholino-3-oxoprop-1-en-1-yl)-5-oxo-N-(2,2,2-trifluoroethyl)-4,5-dihydropyrazolo[1,5-a]pyrimidine-6-carboxamide], under setting [1], the IC50 was determined as 0.88 nM.

With `COC1(C)CCN(C(=O)/C=C/c2cnn3c(O)c(C(=O)NC4CC4)c(=O)n(CC(C)C)c23)CC1` [compound 470], the IC50 under setting [1] was 0.88 nM.

As to `CC(C)(C)Cn1c(=O)c(C(=O)NC2CC2)c(O)n2nc3ncccc3c12` [Synthesis Example 391, N-Cyclopropyl-4-hydroxy-1-neopentyl-2-oxo-1,2-dihydropyrido[2′,3′:3,4]pyrazolo[1,5-a]pyrimidine-3-carboxamide], the IC50 under setting [1] was 0.92 nM.

On to `CC(C)(C)Cn1c(=O)c(C(=O)NC2CC2)c(O)n2nc(C(C)(C)O)cc12` [Synthesis Example 278, N-Cyclopropyl-7-hydroxy-2-(2-hydroxypropan-2-yl)-4-neopentyl-5-oxo-4,5-dihydropyrazolo[1,5-a]pyrimidine-6-carboxamide], for which the IC50 under setting [1] was determined as 1.87 nM.

In the case of `Nc1nn2c(O)c(C(=O)NC3CC3)c(=O)n(CC3CC3)c2c1/C=C/C(=O)N1CCC(F)(F)CC1` [Synthesis Example 420, (E)-2-Amino-N-cyclopropyl-4-(cyclopropylmethyl)-3-(3-(4,4-difluoropiperidin-1-yl)-3-oxoprop-1-en-1-yl)-7-hydroxy-5-oxo-4,5-dihydropyrazolo[1,5-a]pyrimidine-6-carboxamide hydrochloride], the IC50 under setting [1] was 0.75 nM.

With `CC(=O)N1CCC(/C=C/c2cnn3c(O)c(C(=O)NC4CC4)c(=O)n(CC(C)C)c23)CC1` [Synthesis Example 244, (E)-3-(2-(1-Acetylpiperidin-4-yl)vinyl)-N-cyclopropyl-7-hydroxy-4-isobutyl-5-oxo-4,5-dihydropyrazolo[1,5-a]pyrimidine-6-carboxamide], the IC50 under setting [1] was found to be 0.99 nM.

As to `Cc1nn2c(O)c(C(=O)NC3CC3)c(=O)n(CC(C)C)c2c1/C=C/C(=O)N1CCC[C@H]1C(F)F` [Synthesis Example 634, (S,E)-N-Cyclopropyl-3-(3-(2-(difluoromethyl)pyrrolidin-1-yl)-3-oxoprop-1-en-1-yl)-7-hydroxy-4-isobutyl-2-methyl-5-oxo-4,5-dihydropyrazolo[1,5-a]pyrimidine-6-carboxamide], the IC50 under setting [1] was determined as 1.21 nM.

For `Cc1nn2c(O)c(C(=O)NC3CC3)c(=O)n(CC3CCOCC3)c2c1/C=C/C(=O)N1CCOCC1` [compound 575, (E)-N-Cyclopropyl-7-hydroxy-2-methyl-3-(3-morpholino-3-oxoprop-1-en-1-yl)-5-oxo-4-((tetrahydro-2H-pyran-4-yl)methyl)-4,5-dihydropyrazolo[1,5-a]pyrimidine-6-carboxamide], the IC50 under setting [1] worked out at 0.81 nM.

As to `Cc1nn2c(O)c(C(=O)NC3CC3)c(=O)n(CC(C)C)c2c1/C=C/C(=O)N1C[C@@H]2C[C@H]1CO2` [Synthesis Example 753, 3-((E)-3-((1S,4S)-2-Oxa-5-azabicyclo[2.2.1]heptan-5-yl)-3-oxoprop-1-en-1-yl)-N-cyclopropyl-7-hydroxy-4-isobutyl-2-methyl-5-oxo-4,5-dihydropyrazolo[1,5-a]pyrimidine-6-carboxamide], under setting [2], the IC50 came out at 0.48 nM.

For `CC(C)Cn1c(=O)c(C(=O)NC2CC2)c(O)n2ncc(/C=C/C(=O)N(C)CCC#N)c12` [compound 524, (E)-3-(3-((2-Cyanoethyl)(methyl)amino)-3-oxoprop-1-en-1-yl)-N-cyclopropyl-7-hydroxy-4-isobutyl-5-oxo-4,5-dihydropyrazolo[1,5-a]pyrimidine-6-carboxamide], the IC50 under setting [1] amounted to 0.72 nM.

For `CC(C)Cn1c(=O)c(C(=O)NC2CC2)c(O)n2ncc(/C=C/C(=O)N3CCc4ccncc43)c12` [Synthesis Example 742, (E)-N-Cyclopropyl-3-(3-(2,3-dihydro-1H-pyrrolo[2,3-c]pyridin-1-yl)-3-oxoprop-1-en-1-yl)-7-hydroxy-4-isobutyl-5-oxo-4,5-dihydropyrazolo[1,5-a]pyrimidine-6-carboxamide], the IC50 under setting [2] turned out to be 1.59 nM.

`CC1(Cn2c(=O)c(C(=O)NC3CC3)c(O)n3nc(N)c(/C=C/C4CCOCC4)c23)CCOCC1` [Synthesis Example 445, (E)-2-Amino-N-cyclopropyl-7-hydroxy-4-((4-methyltetrahydro-2H-pyran-4-yl)methyl)-5-oxo-3-(2-(tetrahydro-2H-pyran-4-yl)vinyl)-4,5-dihydropyrazolo[1,5-a]pyrimidine-6-carboxamide hydrochloride]: under setting [1], the IC50 was 0.66 nM.

Turning to `CC(C)(C)Cn1c(=O)c(C(=O)NC2CC2)c(O)n2nc3c(c12)CN(C1CC1)C(=O)N3` [Synthesis Example 408, N,3-Dicyclopropyl-8-hydroxy-5-neopentyl-2,6-dioxo-1,2,3,4,5,6-hexahydropyrazolo[1,5-a:3,4-d′]dipyrimidine-7-carboxamide], the IC50 under setting [1] is 0.83 nM.

Turning to `CC(C)(C)Cn1c(=O)c(C(=O)NC2CC2)c(O)n2nc(N)c(/C=C/C(=O)N3CCOCC3)c12` [Synthesis Example 411, (E)-2-Amino-N-cyclopropyl-7-hydroxy-3-(3-morpholino-3-oxoprop-1-en-1-yl)-4-neopentyl-5-oxo-4,5-dihydropyrazolo[1,5-a]pyrimidine-6-carboxamide], under setting [1], the IC50 was found to be 0.65 nM.

On to `CC(C)Cn1c(=O)c(C(=O)NC2CC2)c(O)n2nc(N)c(/C=C/C(=O)N3[C@@H](C)COC[C@@H]3C)c12` [Synthesis Example 422, 2-Amino-N-cyclopropyl-3-((E)-3-((3S,5S)-3,5-dimethylmorpholino)-3-oxoprop-1-en-1-yl)-7-hydroxy-4-isobutyl-5-oxo-4,5-dihydropyrazolo[1,5-a]pyrimidine-6-carboxamide], for which, under setting [1], the IC50 worked out at 0.75 nM.

`CC(C)Cn1c(=O)c(C(=O)NC2CC2)c(O)n2ncc(C(=O)NCc3ccc(C#N)cc3)c12` [Synthesis Example 232, N3-(4-Cyanobenzyl)-N6-cyclopropyl-7-hydroxy-4-isobutyl-5-oxo-4,5-dihydropyrazolo[1,5-a]pyrimidine-3,6-dicarboxamide]: under setting [1], the IC50 amounted to 1.25 nM.

For `CC(C)Cn1c(=O)c(C(=O)NC2CC2)c(O)n2ncc(/C=C/C(=O)N3CCS(=O)(=O)CC3)c12` [compound 514, (E)-N-Cyclopropyl-3-(3-(1,1-dioxidothiomorpholino)-3-oxoprop-1-en-1-yl)-7-hydroxy-4-isobutyl-5-oxo-4,5-dihydropyrazolo[1,5-a]pyrimidine-6-carboxamide], under setting [1], the IC50 was determined as 0.58 nM.
